SMILES strings stand for the structures. In brackets after ≈: the same amount, converted by molar mass.

The test system of one experiment is Mastocarcinoma Cells MCF-7. Briefly: In vitro antitumor effect on mastocarcinoma cells MCF-7 (Methylene Blue staining, proliferation inhibition). Type of experiment: cell-based. The following applies: Homo sapiens, MCF7, 72 h; MCF-7 cells, 3 days culture with test compound, RPMI 1640 with 10% serum, Methylene Blue absorbance; read-out: IC50 value (50% cytostatic concentration). Here is the method: In Vitro Antitumor Effect on Mastocarcinoma Cells MCF-7
By the use of RPMI 1640 medium (Asahi Tekunogurasu Co., Ltd.) containing 10% serum, 2,000 MCF-7 cells were seeded into a 96-well plate. The cells were cultured for 24 hours under conditions of 37° C. and 5% CO2/95% air, and then a test compound was added thereto, followed by culturing for another 3 days. Cells were stained with a 0.05% Methylene Blue solution and absorbance at 660 nm was measured with a microtiter plate reader (Benchmark Plus, mfd. by BIO RAD Laboratories Inc.). The proliferation inhibition rate was calculated by the following equation and the 50% cytostatic concentration was determined from a dose-response curve. Proliferation inhibition rate=((absorbance for control group−absorbance for drug-treated group)/absorbance for control group))×100
Take `CC1Cc2nnc(-c3cccc(C(F)(F)F)c3)cc2C(OC(=O)COCC(=O)NCCN2CCOCC2)C1` (centres unmarked) [Compound No. 15, 5-[(2-(morpholin-4-yl)ethyl)aminocarbonylmethoxyacetyl]oxy-7-methyl-3-(3-trifluoromethylphenyl)-5,6,7,8-tetrahydrocinnoline]: the IC50 was determined as 0.171 µg/mL (≈ 0.319 µM). Still for that read-out and setting: in the case of `CC1Cc2nnc(-c3cccc(C(F)(F)F)c3)cc2C(OC(=O)CCCC(=O)O)C1` (centres unmarked) [Compound No. 19, 5-(4-carboxybutanoyl)oxy-7-methyl-3-(3-trifluoromethylphenyl)-5,6,7,8-tetrahydrocinnoline] it was 0.908 µg/mL (≈ 2.15 µM). `CC1Cc2nnc(-c3cccc(C(F)(F)F)c3)cc2C(OC(=O)CCC(=O)NCc2ccncc2)C1` (centres unmarked) [Compound No. 25, 5-[3-(pyridin-4-ylmethyl)aminocarbonylpropanoyl]oxy-7-methyl-3-(3-trifluoromethylphenyl)-5,6,7,8-tetrahydrocinnoline]: the IC50 turned out to be 0.144 µg/mL (≈ 0.289 µM).

Take `CCOC(=O)CCC(=O)OC1CC(C)Cc2nnc(-c3cccc(C(F)(F)F)c3)cc21` (centres unmarked) [Compound No. 27, 5-(3-ethoxycarbonylpropanoyl)oxy-7-methyl-3-(3-trifluoromethylphenyl)-5,6,7,8-tetrahydro-cinnoline]: the IC50 stood at 0.736 µg/mL (≈ 1.69 µM). Turning to `CCOCC(=O)OC1CC(C)Cc2nnc(-c3cccc(C(F)(F)F)c3)cc21` (centres unmarked) [Compound No. 13, 5-ethoxyacetyloxy-7-methyl-3-(3-trifluoromethylphenyl)-5,6,7,8-tetrahydrocinnoline], the IC50 amounted to 0.135 µg/mL (≈ 0.342 µM). Still for that read-out and setting: in the case of `CC1Cc2nnc(-c3cccc(C(F)(F)F)c3)cc2C(OC(=O)CCC(=O)O)C1` (centres unmarked) [Compound No. 18, 5-(3-carboxypropanoyl)oxy-7-methyl-3-(3-trifluoromethylphenyl)-5,6,7,8-tetrahydrocinnoline] it was 0.981 µg/mL (≈ 2.4 µM); in that of `CC1Cc2nnc(-c3cccc(C(F)(F)F)c3)cc2C(OC(=O)CCC(=O)NCCN2CCOCC2)C1` (centres unmarked) [Compound No. 23, 5-[3-[2-(morpholin-4-yl)ethyl]amino-carbonylpropanoyl]oxy-7-methyl-3-(3-trifluoromethylphenyl)-5,6,7,8-tetrahydrocinnoline], 0.128 µg/mL (≈ 0.246 µM).

With `COC(=O)CCC(=O)OC1CC(C)Cc2nnc(-c3cccc(C(F)(F)F)c3)cc21` (centres unmarked) [Compound No. 26, 5-(3-methoxycarbonylpropanoyl)oxy-7-methyl-3-(3-trifluoromethylphenyl)-5,6,7,8-tetrahydro-cinnoline], the IC50 came to 1.18 µg/mL (≈ 2.79 µM). Still for that read-out and setting: in the case of `CC1Cc2nnc(-c3cccc(C(F)(F)F)c3)cc2C(OC(=O)CCC(=O)NCc2cccnc2)C1` (centres unmarked) [Compound No. 24, 5-[3-(pyridin-3-ylmethyl)aminocarbonylpropanoyl]oxy-7-methyl-3-(3-trifluoromethylphenyl)-5,6,7,8-tetrahydrocinnoline] it was 0.098 µg/mL (≈ 0.197 µM); in that of `CC1Cc2nnc(-c3cccc(C(F)(F)F)c3)cc2C(OC(=O)N2CCOCC2)C1.Cl` (centres unmarked) [Compound No. 43, 7-methyl-5-(morpholin-4-yl-carbonyl)oxy-3-(3-trifluoromethylphenyl)-5,6,7,8-tetrahydrocinnoline hydrochloride], 4.34 µg/mL. Same read-out and setting: in the case of `CC1Cc2nnc(-c3cccc(C(F)(F)F)c3)cc2C(OC(=O)COCC(=O)NCc2cccnc2)C1` (centres unmarked) [Compound No. 16, 5-[(pyridin-3-ylmethyl)aminocarbonylmethoxyacetyl]oxy-7-methyl-3-(3-trifluoromethyl-phenyl)-5,6,7,8-tetrahydrocinnoline] it was 0.166 µg/mL (≈ 0.323 µM); in that of `COCCOC(=O)OC1CC(C)Cc2nnc(-c3cccc(C(F)(F)F)c3)cc21` (centres unmarked) [Compound No. 38, 5-(2-methoxyethoxycarbonyl)oxy-7-methyl-3-(3-trifluoromethylphenyl)-5,6,7,8-tetrahydro-cinnoline], 0.649 µg/mL (≈ 1.58 µM).

For `CC1Cc2nnc(-c3cccc(C(F)(F)F)c3)cc2C(OC(=O)CCCN(C)C)C1` (centres unmarked) [Compound No. 21, 5-(4-dimethylaminobutanoyl)oxy-7-methyl-3-(3-trifluoromethylphenyl)-5,6,7,8-tetrahydro-cinnoline], the IC50 turned out to be 0.129 µg/mL (≈ 0.306 µM). Still for that read-out and setting: in the case of `CC1Cc2nnc(-c3cccc(C(F)(F)F)c3)cc2C(OC(=O)COCC(=O)NCc2ccncc2)C1` (centres unmarked) [Compound No. 17, 5-[(pyridin-4-ylmethyl)aminocarbonylmethoxyacetyl]oxy-7-methyl-3-(3-trifluoromethyl-phenyl)-5,6,7,8-tetrahydrocinnoline] it was 0.139 µg/mL (≈ 0.27 µM). As for `CC1Cc2nnc(-c3cccc(C(F)(F)F)c3)cc2C(OC(=O)COCC(=O)O)C1` (centres unmarked) [Compound No. 14, 5-(carboxymethoxyacetyl)oxy-7-methyl-3-(3-trifluoromethylphenyl)-5,6,7,8-tetrahydrocinnoline], the IC50 turned out to be 0.148 µg/mL (≈ 0.349 µM).

Still in this experiment, the particulars now being: MCF-7 cells, 3 days culture with test compound, RPMI 1640 with 10% serum, Methylene Blue absorbance.
For the compound `CC1Cc2nnc(-c3cccc(C(F)(F)F)c3)cc2C(OC(=O)OCCN2CCOCC2)C1` (centres unmarked) [Compound No. 39, 5-(2-(morpholino-4-yl)ethoxycarbonyl)oxy-7-methyl-3-(3-trifluoromethylphenyl)-5,6,7,8-tetrahydrocinnoline], the “IC50 value (50% cytostatic concentration)” value turned out to be 0.152 µg/mL (≈ 0.327 µM).

As for `CC1Cc2nnc(-c3cccc(C(F)(F)F)c3)cc2C(OC(=O)CC(O)C(=O)O)C1` (centres unmarked) [Compound No. 20, 5-[(3-carboxy-3-hydroxy)propanoyl]oxy-7-methyl-3-(3-trifluoromethylphenyl)-5,6,7,8-tetrahydrocinnoline], the “IC50 value (50% cytostatic concentration)” value is 1.339 µg/mL (≈ 3.16 µM).
